The results in this text go back to patent US12673987B2, “Method to identify compounds useful to treat dysregulated lipogenesis, diabetes, and related disorders” (President and Fellows of Harvard College, priority 2017, dated 2026).

Assay [1] concerns HepG2 cells. In words: De novo lipogenesis (DNL) in HepG2 cells treated with conditioned media from lipolysis-stimulated adipocytes (3H2O incorporation). In kind it is cell-based, human. Here is the method: Murine 3T3L1 adipocytes and human HepG2 cells were obtained from the ATCC. 3T3L1 adipocytes were maintained in Dulbecco Modified Eagle Medium (DMEM) containing 25 mM glucose (Gibco) supplemented with 10% cosmic calf serum (CCS), and adipocyte differentiation was induced as previously described (Ntambi et al., (1988) J. Biol. Chem. 263, 17291-17300). Briefly, preadipocytes were grown in 10 cm dishes until they are fully confluent. At confluent state, 10% bovine calf serum (BCS) containing DMEM medium was replaced with 10% fetal bovine serum (FBS) containing DMEM for two days. Differentiation was induced by FBS medium containing 5 μg/ml Insulin (Sigma, 15500), 0.5 mM IBMX (Sigma, 15879), 1 μM Dexamethasone (Sigma, D4902), and 1 μM Rosiglitazone (Cayman Chemical, 71740). After two days, medium was replaced with FBS medium containing 5 μg/ml Insulin every other day until the cells were completely differentiated at day 10. For siRNA experiment, differentiated 3T3-L1 adipocytes were transfected using Amaxa Nucleofector Kit L (Lonza, VCA-1005) according to the manufacturer's protocol. Briefly, differentiated adipocytes were trypsinized and centrifuged at 100 g for 10 minutes. 3×10^6 cells per 6-well were transfected with 120 pmol/sample Control siRNA (Dharmacon, D-001810-10) or mouse aP2 siRNA (Dharmacon, L-042923-01) using Nucleofector Program A-33. Transfected cells were seeded in Collagen I coated 6-well plates (Corning, 356400). Conditioned media for stimulation of HepG2 cells were prepared in DMDM 3.3 mM glucose supplemented with 0.5% FBS before (basal) and after (lipolysis stimulated) the lipolysis stimulation with 1 mM IBMX. For explant studies, adipose tissue was removed from 8-12 weeks-old littermate mice, minced and washed 5× with DMEM high glucose supplemented with 10% CCS. Twenty pieces of adipose tissue were placed into 6-well plates in 2 ml DMEM high glucose with 10% CCS and incubated for 1 hr. Then conditioned media for stimulation of HepG2 cells were prepared in […] 3.3 mM glucose supplemented with 0.5% FBS before (basal) and after (lipolysis stimulated) the lipolysis stimulation with 1 mM 3-isobutyl-1-methylxanthine (IBMX). For antibody neutralization, 10 nM (for 3T3L1 cells) or 20 nM (for adipose tissue explant) of IgG, CA33, or CA15 antibody was added to DMDM 3.3 mM glucose supplemented with 0.5% FBS was used for the preparation of “basal” and “lipolysis stimulated” conditioned media.
(§1) For maintenance, HepG2 cells were cultured in DMEM containing 5.5 mM glucose (Gibco) supplemented with 10% FBS. For DNL and p-AMPK analysis, HepG2 cells were cultured in DMDM 3.3 mM glucose supplemented with 0.5% FBS, seeded 2×10^5 cells in 12 well plate or 4×10^5 cells in 6 well plate for DNL analysis and p-AMPK analysis, respectively.
For DNL analysis, after overnight culture, the cells were stimulated with conditioned media or 2-AG/aP2 complex and […] of ^3H2O were added 30 min after the stimulation (Gnoni et al., (1985) Biochem. & Biophysical Res. Comm. 128, 525-530; Lowenstein et al., Meth. Enzym. 35, 279-287). […] The cell lysate was analyzed for protein concentration and total lipid was extracted by Dole's extraction method (Dole et al., (1960) J. Biol. Chem. 235, 2595-2599). ^3H incorporation into de novo synthesized lipids were analyzed by scintillation count and calculated as count per μg protein. […] AMPK phosphorylation was determined by western blot (see below).

Assay [2] deals with T1, aP2 (Mus musculus, UniProt P04117).
T1 sequence (P04117 1-132): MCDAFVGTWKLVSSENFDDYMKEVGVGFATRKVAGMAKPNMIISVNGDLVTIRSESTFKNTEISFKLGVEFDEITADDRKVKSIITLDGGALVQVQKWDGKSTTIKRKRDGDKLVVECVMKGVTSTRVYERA
The experiment in a line: 8-Anilinonaphthalene-1-sulfonic acid (ANS) binding assay. Also noted: His tag (cleaved yes); made in house; host or cells: Escherichia coli BL21DE3 (Pet28a plasmid). Here is the method:
(§2) 10 or 20 μM delipidated mouse recombinant aP2 protein with or without 10 μM 2-AG were diluted in 50 mM potassium phosphate buffer (pH 7.4) and incubated at 37C for overnight. The ratio of aP2 binding to 2-AG was determined by 8-Anilinonaphthalene-1-sulfonic acid (ANS) assay. For antibody neutralization, IgG, CA33, or CA15 antibody at final concentration of 20 μM was added to 50 mM potassium phosphate buffer (pH 7.4) only or to delipidated mouse recombinant aP2 protein (final 10 μM) with 2-AG (final 10 μM) solution in 50 mM potassium phosphate buffer (pH 7.4) and incubated at 37° C. overnight. Final concentration in culture media for aP2, 2-AG, and antibodies were 10, 10, and 20 nM, respectively.
aP2 or aP2/lipid solution (final aP2 concentration 1 μM) and ANS (final 5 μM) was diluted in 50 mM potassium phosphate buffer (pH 7.4) and fluorescence Ex/Em 375/475 was measured.

The subject of another assay is AMPK(Thr172). The experiment in a line: AMPK phosphorylation in HepG2 cells by western blot. As to conditions: 5 μM alone. It is filed as cell-based, human. On the procedure:
as §1
For DNL analysis, after overnight culture, the cells were stimulated with conditioned media or 2-AG/aP2 complex and […] of ^3H2O were added 30 min after the stimulation (Gnoni et al., (1985) Biochem. & Biophysical Res. Comm. 128, 525-530; Lowenstein et al., Meth. Enzym. 35, 279-287). After 2 hours of incubation with ^3H2O, cells were washed with PBS and lysed with 0.1N NaOH. The cell lysate was analyzed for protein concentration and total lipid was extracted by Dole's extraction method (Dole et al., (1960) J. Biol. Chem. 235, 2595-2599). ^3H incorporation into de novo synthesized lipids were analyzed by scintillation count and calculated as count per μg protein. […] AMPK phosphorylation was determined by western blot (see below).
The antibodies used were rabbit anti-pAMPK (Cell Signaling), anti-actin HRP conjugated (Abcam), in-house anti-aP2 (H3) HRP conjugated antibodies. For quantification, Western blot images were captured and band intensities were analyzed using ImageJ software.

For assay [3], the system named is HepG2 cells. The experiment in a line: DNL in HepG2 cells stimulated with 2-AG/aP2 complex (3H2O incorporation). In kind it is cell-based, human. As to conditions: for stimulation of DNL in HepG2 cells: final concentration in culture media 10 nM. Here is the method: as §1
For DNL analysis, after overnight culture, the cells were stimulated with conditioned media or 2-AG/aP2 complex and […] of ^3H2O were added 30 min after the stimulation (Gnoni et al., (1985) Biochem. & Biophysical Res. Comm. 128, 525-530; Lowenstein et al., Meth. Enzym. 35, 279-287). After 2 hours of incubation with ^3H2O, cells were washed with PBS and lysed with 0.1N NaOH. The cell lysate was analyzed for protein concentration and total lipid was extracted by Dole's extraction method (Dole et al., (1960) J. Biol. Chem. 235, 2595-2599). ^3H incorporation into de novo synthesized lipids were analyzed by scintillation count and calculated as count per μg protein. For p-AMPK analysis, after overnight culture, cells were stimulated with conditioned media or 2-AG/aP2 complex for 30 min. The cells were washed twice with ice cold PBS and lysed with ice cold RIPA buffer (Cell Signaling) supplemented with 1 mM PMSF. AMPK phosphorylation was determined by western blot (see below).
as §2

Assay [4] deals with 3T3L1 adipocytes. In words: FFA release from 3T3L1 adipocytes. In kind it is cell-based, murine. As to conditions: adipocytes pretreated with 10 μM, starting 48 hours before collection of conditioned media. Here is the method:
(§3) Murine 3T3L1 adipocytes and human HepG2 cells were obtained from the ATCC. 3T3L1 adipocytes were maintained in Dulbecco Modified Eagle Medium (DMEM) containing 25 mM glucose (Gibco) supplemented with 10% cosmic calf serum (CCS), and adipocyte differentiation was induced as previously described (Ntambi et al., (1988) J. Biol. Chem. 263, 17291-17300). Briefly, preadipocytes were grown in 10 cm dishes until they are fully confluent. At confluent state, 10% bovine calf serum (BCS) containing DMEM medium was replaced with 10% fetal bovine serum (FBS) containing DMEM for two days. Differentiation was induced by FBS medium containing 5 μg/ml Insulin (Sigma, 15500), 0.5 mM IBMX (Sigma, 15879), 1 μM Dexamethasone (Sigma, D4902), and 1 μM Rosiglitazone (Cayman Chemical, 71740). After two days, medium was replaced with FBS medium containing 5 μg/ml Insulin every other day until the cells were completely differentiated at day 10. For siRNA experiment, differentiated 3T3-L1 adipocytes were transfected using Amaxa Nucleofector Kit L (Lonza, VCA-1005) according to the manufacturer's protocol. […]
Triglyceride (TG) levels were analyzed using triglyceride assay kit (Randox) and Cholesterol levels were analyzed using by Infinity cholesterol kid (Thermo Scientific). FFA levels in culture media were measured using a NEFA-HR2 kit (Wako) following the manufacturer's instructions.

Assay [5] deals with 3T3L1 adipocytes. The experiment in a line: aP2 secretion from 3T3L1 adipocytes into conditioned media. In kind it is cell-based, murine. To be noted: adipocytes pretreated with 10 μM, starting 48 hours before collection of conditioned media. Here is the method: as §3, with “protocol. Briefly, differentiated adipocytes were trypsinized and centrifuged at 100 g for 10 minutes. 3×10^6 cells per 6-well were transfected with 120 pmol/sample Control siRNA (Dharmacon, D-001810-10) or mouse aP2 siRNA (Dharmacon, L-042923-01) using Nucleofector Program A-33.” for “protocol.”

Assay [6] concerns the target T1, aP2. In words: Microscale thermophoresis assay. To be noted: fluorescence labeled purified aP2 protein. Also noted: His tag (cleaved yes); made in house. In kind it is binding. On the procedure:
It has been reported that both 2-AG and AEA have similar affinity for the CB1 receptor (Stella et al., (1997) Nature 388, 773-778; Felder et al., (1993) PNAS 90, 7656-7660), and only the level of 2-AG in serum is regulated in obesity (Bluher et al., (2006) Diabetes 55, 3053-3060). The potential interaction between 2-AG and aP2 was tested. […] Finally, to resolve the mechanism and structural determinants of this interaction, aP2 and 2-AG was co-crystallized, confirming the ability of these two molecules to bind. In Ca superposition, the root mean square deviation (RMSD) between mouse 2-AG/FABP4 complex and apo mouse FABP4 structure was about 0.548 A (see FIG. 3G). […] Due to steric hindrance of the acyl chain of 2-AG, the Phe57 side chain was modelled as open position in the complex structure. The polar head group of 2-AG was stabilized by hydrogen bond interactions with R127, R107, Y129 and S54 of FABP4 (see FIG. 3H).
(Microscale thermophoresis detects binding through changes in fluorescence in a small temperature gradient.)

Turning to `Cc1c(C(=O)NN2CCCCC2)nn(-c2ccc(Cl)cc2Cl)c1-c1ccc(Cl)cc1` [Rimonabant], the “induction of DNL by conditioned media from lipolysis-stimulated 3T3L1 adipocytes” value in the assay on HepG2 cells [1] (HepG2 cells treated with 1 μM) is “completely inhibited induction of DNL”.

Turning to `CCCCC/C=C\C/C=C\C/C=C\C/C=C\CCCC(=O)OC(CO)CO` [2-AG, 2-Arachidonoylglycerol], the “binding of 2-AG to aP2 by ANS assay” value on aP2 [2] (after overnight incubation of delipidated recombinant aP2 with 2-AG) is listed as “confirmed binding”. Besides, the “binding affinity of aP2 to the lipid, substrate competition with ANS” value on aP2 [2] (compared with mall (Fabp5)) is recorded as “same affinity as does mall”. For the same molecule, the “dephosphorylation of AMPK(Thr172) in HepG2 cells” value with AMPK(Thr172) is reported as “same level”. Moreover, the “stimulation of DNL in HepG2 cells” value in the assay with HepG2 cells [3] was “nor 2-AG alone stimulated DNL”.

As for `CCc1c(-c2ccccc2)c(-c2ccccc2)nn1-c1ccccc1-c1cccc(OCC(=O)O)c1` [BMS-309403], the “ability of conditioned media from lipolysis-stimulated 3T3L1 adipocytes to induce DNL in HepG2 cells” value with HepG2 cells [1] (3T3L1 adipocytes pretreated with 10 μM, starting 48 hours before collection) was “completely inhibited”. Further, in the assay with HepG2 cells [1] (Fabp-deficient adipocytes pre-incubated with 10 μM), the “effect on DNL in HepG2 cells treated with conditioned media from Fabp-deficient adipocytes” value is recorded as “no additional or Fabp-independent effect on DNL”. Further, in the assay on 3T3L1 adipocytes [4], the FFA secretion entry is given as “did not alter”. For the same molecule, the “effect of 2-AG/aP2 complex on DNL in HepG2 cells” value in the assay with HepG2 cells [3] (added during 2-AG/aP2 complex formation) is “eliminated the effect of 2-AG/aP2 complex on DNL”. Also, in the assay with 3T3L1 adipocytes [5], the aP2 secretion entry is given as “did not alter”.

`CCCCCCCC/C=C\CCCCCCCC(=O)O` [oleate]: on aP2 [6], the “Kd of direct binding to aP2” value is “an affinity similar to that observed for oleate”.

B1: aP2: delipidated mouse recombinant aP2 protein (adipocyte lipid binding protein) (protein)
chain: CDAFVGTWKLVSSENFDDYMKEVGVGFATRKVAGMAKPNMIISVNGDLVTIRSESTFKNTEISFKLGVEFDEITADDRKVKSIITLDGGALVQVQKWDGKSTTIKRKRDGDKLVVECVMKGVTSTRVYERA
With B1, the “rescue of DNL in HepG2 cells” value in the assay on HepG2 cells [1] (added to conditioned media from 3T3L1 adipocytes with siRNA-mediated aP2 suppression) is “not sufficient to rescue DNL”. The “stimulation of DNL in HepG2 cells” value in the assay with HepG2 cells [3] is reported as “neither aP2 nor 2-AG alone stimulated DNL”.

B2: CA33: therapeutically active aP2 monoclonal antibody; the rabbit 909 heavy and light chain comprise CA33 (antibody, V domains shown)
VH: QSVEESGGRLVTPGTPLTLTCTVSGFSLSTYYMSWVRQAPGKGLEWIGIIYPSGSTYCASWAKGRFTISKASTTVDLKITSPTTEDTATYFCARPDNDGTSGYLSGFGLWGQGTLVTVSS
VL: DVVMTQTPASVSEPVGGTVTIKCQASEDISRYLVWYQQKPGQPPKRLIYKASTLASGVPSRFKGSGSGTDFTLTISDLECDDAATYYCQCTYGTYAGSFFYSFGGGTEVVVE
modifications: Rabbit Ab 909 VH region; Rabbit Ab 909 VL-region
As to B2, the “induction of DNL by conditioned media from lipolysis stimulated adipocytes in HepG2 cells” value with HepG2 cells [1] (antibody (10 nM for 3T3L1 cells) added to conditioned media, IBMX lipolysis stimulation) is “completely prevented the induction of DNL”. Also, in the assay on HepG2 cells [3] (complex formed in the presence of antibody (20 μM, final 20 nM in culture media)), the “ability of 2-AG/aP2 complex to regulate DNL in HepG2 cells” value is recorded as “lost its ability to regulate DNL”.
